Experimental data: patent publication US10987359B2, “Oxadiazepinone derivatives and methods of treating hepatitis B infections” (priority 2016, dated 2021)
Where two headings read alike, the source gives them in different places.

Test system: HBV
Test: HBV replication inhibition assay (BDNA assay) in HepG2.2.15 cells
Type: cell-based
Conditions: HepG2.2.15 cells, read-out: DNA EC50
Outline: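 Supernatant encapsidated HBV DNA was measured by bDNA after DNase digestion and proteinase K release. Stably HBV-integrated HepG2.2.15 cells had two 3-day compound exposures (0.5% DMSO). Signals were background-subtracted and normalized to DMSO wells, and EC50 was obtained by four-parameter fit.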

[1] = HBV replication assay (BDNA assay)
[2] = Hepatitis B virus, HepG2.2.15, HBV replication assay (BDNA assay)

| Structure (SMILES) | EC50 [1] [µM] | EC50 [2] [µM] |
| --- | --- | --- |
| C[C@@H]1Cc2nn3c(c2CN1C(=O)Nc1ccc(F)c(C#N)c1)C(=O)N(C)OC(CNS(C)(=O)=O)C3 (single isomer, unassigned) [Compound 178_D2, (4R*,9R)—N-(3-cyano-4-fluorophenyl)-2,9-dimethyl-4-(methylsulfonamidomethyl)-1-oxo-1,4,5,8,9,11-hexahydropyrido[4′,3′:3,4]pyrazolo[5,1-d][1,2,5]oxadiazepine-10(2H)-carboxamide] | 0.001 to 0.1 | – |
| C[C@@H]1Cc2nn3c(c2CN1C(=O)Nc1ccc(F)c(C(F)(F)F)c1)C(=O)N(C)OC(CNS(C)(=O)=O)C3 (single isomer, unassigned) [Compound 179_D1, (4 S*,9R)—N-(4-fluoro-3-(trifluoromethyl)phenyl)-2,9-dimethyl-4-(methylsulfonamidomethyl)-1-oxo-1,4,5,8,9,11-hexahydropyrido[4′,3′:3,4]pyrazolo[5,1-d][1,2,5]oxadiazepine-10(2H)-carboxamide] | – | 0.001 to 0.1 |
| C[C@@H]1Cc2nn3c(c2CN1C(=O)Nc1ccc(F)c(C(F)(F)F)c1)C(=O)N(C)OC(CNS(C)(=O)=O)C3 (single isomer, unassigned) [Compound 179_D2, (4R*,9R)—N-(4-fluoro-3-(trifluoromethyl)phenyl)-2,9-dimethyl-4-(methylsulfonamidomethyl)-1-oxo-1,4,5,8,9,11-hexahydropyrido[4′,3′:3,4]pyrazolo[5,1-d][1,2,5]oxadiazepine-10(2H)-carboxamide] | 0.001 to 0.1 | – |
| COC(=O)NCC1Cn2nc3c(c2C(=O)N(C)O1)CN(C(=O)Nc1ccc(F)c(C#N)c1)[C@H](C)C3 (single isomer, unassigned) [Compound 180_D1, methyl (((4S*,9R)-10-((3-cyano-4-fluorophenyl)carbamoyl)-2,9-dimethyl-1-oxo-1,2,4,5,8,9,10,11-octahydropyrido[4′,3′:3,4]pyrazolo[5,1-d][1,2,5]oxadiazepin-4-yl)methyl)carbamate] | – | 0.001 to 0.1 |
| COC(=O)NCC1Cn2nc3c(c2C(=O)N(C)O1)CN(C(=O)Nc1ccc(F)c(C#N)c1)[C@H](C)C3 (single isomer, unassigned) [Compound 180_D2, methyl (((4R*,9R)-10-((3-cyano-4-fluorophenyl)carbamoyl)-2,9-dimethyl-1-oxo-1,2,4,5,8,9,10,11-octahydropyrido[4′,3′:3,4]pyrazolo[5,1-d][1,2,5]oxadiazepin-4-yl)methyl)carbamate] | 0.001 to 0.1 | – |
| COC(=O)NCC1Cn2nc3c(c2C(=O)N(C)O1)CN(C(=O)Nc1ccc(F)c(C(F)(F)F)c1)[C@H](C)C3 (single isomer, unassigned) [Compound 181_D1, methyl(((4S*,9R)-10-((4-fluoro-3-(trifluoromethyl)phenyl)carbamoyl)-2,9-dimethyl-1-oxo-1,2,4,5,8,9,10,11-octahydropyrido[4′,3′:3,4]pyrazolo[5,1-d][1,2,5]oxadiazepin-4-yl)methyl)carbamate] | – | 0.001 to 0.1 |
| COC(=O)NCC1Cn2nc3c(c2C(=O)N(C)O1)CN(C(=O)Nc1ccc(F)c(C(F)(F)F)c1)[C@H](C)C3 (single isomer, unassigned) [Compound 181_D2, methyl (((4R*,9R)-10-((4-fluoro-3-(trifluoromethyl)phenyl)carbamoyl)-2,9-dimethyl-1-oxo-1,2,4,5,8,9,10,11-octahydropyrido[4′,3′:3,4]pyrazolo[5,1-d][1,2,5]oxadiazepin-4-yl)methyl)carbamate] | 0.001 to 0.1 | – |
| C[C@@H]1Cc2nn3c(c2CN1C(=O)Nc1ccc(F)c(C(F)(F)F)c1)C(=O)N(C)OC(CNCC(F)F)C3 (single isomer, unassigned) [Compound 182_D1, (4S*,9R)-4-(((2,2-difluoroethyl)amino)methyl)-N-(4-fluoro-3-(trifluoromethyl)phenyl)-2,9-dimethyl-1-oxo-1,4,5,8,9,11-hexahydropyrido[4′,3′:3,4]pyrazolo[5,1-d][1,2,5]oxadiazepine-10(2H)-carboxamide] | – | 0.001 to 0.1 |
| C[C@@H]1Cc2nn3c(c2CN1C(=O)Nc1ccc(F)c(C(F)(F)F)c1)C(=O)N(C)OC(CNCC(F)F)C3 (single isomer, unassigned) [Compound 182_D2, (4R*,9R)-4-(((2,2-difluoroethyl)amino)methyl)-N-(4-fluoro-3-(trifluoromethyl)phenyl)-2,9-dimethyl-1-oxo-1,4,5,8,9,11-hexahydropyrido[4′,3′:3,4]pyrazolo[5,1-d][1,2,5]oxadiazepine-10(2H)-carboxamide] | 0.001 to 0.1 | – |
| CN1OC(CNCC(F)F)Cn2nc3c(c2C1=O)CN(C(=O)Nc1ccc(F)c(C#N)c1F)CC3 (single isomer, unassigned) [Compound 186_E1, (S*)—N-(3-cyano-2,4-difluorophenyl)-4-(((2,2-difluoroethyl)amino)methyl)-2-methyl-1-oxo-1,4,5,8,9,11-hexahydropyrido[4′,3′:3,4]pyrazolo[5,1-d][1,2,5]oxadiazepine-10(2H)-carboxamide] | – | 0.001 to 0.1 |
| CN1OC(CNCC(F)F)Cn2nc3c(c2C1=O)CN(C(=O)Nc1ccc(F)c(C#N)c1)CC3 (single isomer, unassigned) [Compound 187_E1, (S*)—N-(3-cyano-4-fluorophenyl)-4-(((2,2-difluoroethyl)amino)methyl)-2-methyl-1-oxo-1,4,5,8,9,11-hexahydropyrido[4′,3′:3,4]pyrazolo[5,1-d][1,2,5]oxadiazepine-10(2H)-carboxamide] | – | 0.001 to 0.1 |
| CN1OC(CNCC(F)F)Cn2nc3c(c2C1=O)CN(C(=O)Nc1ccc(F)c(Cl)c1F)CC3 (single isomer, unassigned) [Compound 188_E1, (S*)—N-(3-chloro-2,4-difluorophenyl)-4-(((2,2-difluoroethyl)amino)methyl)-2-methyl-1-oxo-1,4,5,8,9,11-hexahydropyrido[4′,3′:3,4]pyrazolo[5,1-d][1,2,5]oxadiazepine-10(2H)-carboxamide] | – | 0.001 to 0.1 |
| CN1OC(CNCC(F)F)Cn2nc3c(c2C1=O)CN(C(=O)Nc1ccc(F)c(Br)c1F)CC3 (single isomer, unassigned) [Compound 189_E1, (S*)—N-(3-bromo-2,4-difluorophenyl)-4-(((2,2-difluoroethyl)amino)methyl)-2-methyl-1-oxo-1,4,5,8,9,11-hexahydropyrido[4′,3′:3,4]pyrazolo[5,1-d][1,2,5]oxadiazepine-10(2H)-carboxamide] | – | 0.001 to 0.1 |
| CN1OC(CNCC(F)F)Cn2nc3c(c2C1=O)CN(C(=O)Nc1ccc(F)c(Br)c1)CC3 (single isomer, unassigned) [Compound 190_E1, (S*)—N-(3-bromo-4-fluorophenyl)-4-(((2,2-difluoroethyl)amino)methyl)-2-methyl-1-oxo-1,4,5,8,9,11-hexahydropyrido[4′,3′:3,4]pyrazolo[5,1-d][1,2,5]oxadiazepine-10(2H)-carboxamide] | – | 0.001 to 0.1 |
| CN1OC(CNCC(F)F)Cn2nc3c(c2C1=O)CN(C(=O)Nc1ccc(F)c(C(F)(F)F)c1F)CC3 (single isomer, unassigned) [Compound 191_E1, (S*)—N-(2,4-difluoro-3-(trifluoromethyl)phenyl)-4-(((2,2-difluoroethyl)amino)methyl)-2-methyl-1-oxo-1,4,5,8,9,11-hexahydropyrido[4′,3′:3,4]pyrazolo[5,1-d][1,2,5]oxadiazepine-10(2H)-carboxamide] | – | 0.001 to 0.1 |
| CN1OC(CNCC(F)F)Cn2nc3c(c2C1=O)CN(C(=O)Nc1cc(Cl)c(F)cc1F)CC3 (single isomer, unassigned) [Compound 192_E1, (S*)—N-(5-chloro-2,4-difluorophenyl)-4-(((2,2-difluoroethyl)amino)methyl)-2-methyl-1-oxo-1,4,5,8,9,11-hexahydropyrido[4′,3′:3,4]pyrazolo[5,1-d][1,2,5]oxadiazepine-10(2H)-carboxamide] | – | 0.001 to 0.1 |
| CN1OC(CNCC(F)F)Cn2nc3c(c2C1=O)CN(C(=O)Nc1cc(Br)c(F)cc1F)CC3 (single isomer, unassigned) [Compound 193_E1, (S*)—N-(5-bromo-2,4-difluorophenyl)-4-(((2,2-difluoroethyl)amino)methyl)-2-methyl-1-oxo-1,4,5,8,9,11-hexahydropyrido[4′,3′:3,4]pyrazolo[5,1-d][1,2,5]oxadiazepine-10(2H)-carboxamide] | – | 0.001 to 0.1 |
| CN1OC(COCC(F)(F)F)Cn2nc3c(c2C1=O)CN(C(=O)Nc1ccc(F)c(C#N)c1)CC3 (single isomer, unassigned) [Compound 211, (S*)—N-(3-cyano-4-fluorophenyl)-2-methyl-1-oxo-4-((2,2,2-trifluoroethoxy)methyl)-1,4,5,8,9,11-hexahydropyrido[4′,3′:3,4]pyrazolo[5,1-d][1,2,5]oxadiazepine-10(2H)-carboxamide] | – | 0.001 to 0.1 |
| CN1OC(COCC(F)F)Cn2nc3c(c2C1=O)CN(C(=O)Nc1ccc(F)c(C(F)(F)F)c1)CC3 (single isomer, unassigned) [Compound 212, (S*)-4-((2,2-difluoroethoxy)methyl)-N-(4-fluoro-3-(trifluoromethyl)phenyl)-2-methyl-1-oxo-1,4,5,8,9,11-hexahydropyrido[4′,3′:3,4]pyrazolo[5,1-d][1,2,5]oxadiazepine-10(2H)-carboxamide] | – | 0.001 to 0.1 |
| CN1O[C@H](C[S@+](C)[O-])Cn2nc3c(c2C1=O)CN(C(=O)Nc1ccc(F)c(Cl)c1)CC3 (stereo in doubt) [Compound 049_E1, (S*)—N-(3-chloro-4-fluorophenyl)-2-methyl-4-(((S*)-methylsulfinyl)methyl)-1-oxo-1,4,5,8,9,11-hexahydropyrido[4′,3′:3,4]pyrazolo[5,1-d][1,2,5]oxadiazepine-10(2H)-carboxamide] | – | 0.1 to 0.5 |
| CN1O[C@H](C[S@@+](C)[O-])Cn2nc3c(c2C1=O)CN(C(=O)Nc1ccc(F)c(Cl)c1)CC3 (stereo in doubt) [Compound 049_E2, (S*)—N-(3-chloro-4-fluorophenyl)-2-methyl-4-(((R*)-methylsulfinyl)methyl)-1-oxo-1,4,5,8,9,11-hexahydropyrido[4′,3′:3,4]pyrazolo[5,1-d][1,2,5]oxadiazepine-10(2H)-carboxamide] | – | 0.001 to 0.1 |
